Measured values published in US9326972B2, “Use of phenylmethimazoles, methimazole derivatives, and tautomeric cyclic thiones for the treatment of autoimmune/inflammatory diseases associated with toll-like receptor overexpression” (Ohio University, priority 2004, dated 2016).

Columns and labels:
ISRE = experiment: ISRE-Luc reporter gene in FRTL-5 thyrocytes; format: cell-based, rat
Experimental: (§1) Cells were co-transfected with ISRE-Luc and pRLTk-Int and then treated without (none) or with Poly I:C (100 μg/ml), LPS (100 ng/ml), IL-1β (10 ng/ml) TNF-α (25 ng/ml), IFN-β (100 U/ml) or IFN-γ (1000 U/ml) in the presence of DMSO (−) or C10 for 6 hours. Data were obtained using the Dual Luciferase Assay system. The effect on the ISRE element is not duplicated by an NF-κB reporter plasmid despite the similarity of the two elements: ([…])5 (SEQ ID NO:3) vs. ([…])5 (SEQ ID NO:4), respectively. Data are representative of multiple experiments.
Plasmids for Reporter Gene Assays. Human IRF-3 was amplified from human cDNA and cloned into pCR 2.1 by the TOPO/TA (Invitrogen, Carlsbad, Calif.) cloning method, and then sequenced. IRF-3 was then excised by EcoRI digestion and subcloned into pCMV-BD (Stratagene, La Jolla, Calif.) for use in transactivation assays. To construct IFN-β-luc the human IFN-β promoter sequence was amplified from human genomic DNA (Clontech, Palo Alto, Calif.)) using Ex Taq™ Polymerase (Takara, Madison, Wis.). The PCR fragment contained human IFN-β promoter sequence from −125 to +34 relative to the transcription start site (+1) and incorporated KpnI and XhoI restriction sites at the 5′ and 3′ ends, respectively. The primers were as follows: hIFN-β (−125) KpnI (5′-[…]-3′) (SEQ ID NO:9) and hIFN-β (+34) XhoI (5′-[…]-3′). […]

NF-κB = NF-κB Luc reporter gene in FRTL-5 thyrocytes; format: cell-based, rat; conditions: for NF-κB Luc Relative Luciferase Activity % of Control (±15%), +C10: 6 hours
Experimental: Poly (I:C) (the dsRNA ligand commonly used as a test compound) activates the TLR3 mediated NF-κ β/Map kinase signal pathway in FRTL-5 thyrocytes. FRTL-5 cells were transiently transfected with 100 ng of luciferase reporter pNF-κB Luc and 2 ng of internal control phRL-Tk. After 36 h, cells were incubated with 100 μg/ml poly (I:C) or endotoxin-free E. coli DNA for 6 h. Measurements were made with the Dual Luciferase Assay System (Promega). Poly (I:C) increased TLR3 mediated NF-κB mediated luciferase activity (gene expression) 6 fold; dsDNA had no effect. Further support came from electrophoretic mobility shift analyses (EMSA). When FRTL-5 thyrocytes were incubated with 100 μg/ml poly (I:C), IL-1β, TNF-α or TPA, cells lysed after 1 h, and nuclear translocation of NF-κB measured. The poly (I:C) induced p50/p65 complex formation as measured by the presence of a specific new protein/DNA complex and its inhibition by anti-p50 and p65 antibodies, but not by anti-p52, c-rel and Rel B antibodies; the complex was also supershifted by anti-p50. […] Additionally, when FRTL-5 cells were co-transfected with pCMV-BD-Elk 1 and pFR-luc, then incubated with 100 μg/ml poly (I:C) or IL-1β for 6 hrs, ELK1 transactivation was increased 2-fold by both Poly (I:C) and IL-1β when measured with the Dual Luciferase Assay System (Promega). NF-κB/MAP Kinase signals evoked by TLR3 binding dsRNA are only one portion of TLR3 functional expression.
as §1
Plasmids for Reporter Gene Assays. Human IRF-3 was amplified from human cDNA and cloned into pCR 2.1 by the TOPO/TA (Invitrogen, Carlsbad, Calif.) cloning method, and then sequenced. IRF-3 was then excised by EcoRI digestion and subcloned into pCMV-BD (Stratagene, La Jolla, Calif.) for use in transactivation assays. To construct IFN-β-luc the human IFN-β promoter sequence was amplified from human genomic DNA (Clontech, Palo Alto, Calif.)) using Ex Taq™ Polymerase (Takara, Madison, Wis.). The PCR fragment contained human IFN-β promoter sequence from −125 to +34 relative to the transcription start site (+1) and incorporated KpnI and XhoI restriction sites at the 5′ and 3′ ends, respectively. The primers were as follows: hIFN-β (−125) KpnI (5′-[…]-3′) (SEQ ID NO:9) and hIFN-β (+34) XhoI (5′-[…]-3′). (SEQ ID NO: 10) The fragment was digested with KpnI and XhoI then ligated into a similarly digested pGL3 Basic (Promega, Madison, Wis.) vector. The human MyD88 wild and dominant negative expression vectors were kindly donated by Dr. P. E. Auron. pFR-luc (5×Gal4 DNA binding domains and minimal TATA box), ISRE-Luc, NF-κB-luc and the Elk1 trans-Reporting System were purchased from Stratagene. pRL TK-Int was purchased from Promega.
Transient Expression Analysis. A DEAE procedure was used to transfect promoter-luciferase gene constructs and expression plasmids into FRTL-5 cells. Briefly, FRTL-5 cells were grown in 24-well plates to about 70% confluence, washed with 0.5 ml of serum-free culture medium (6H0 medium), then exposed to 125 μl of premade plasmid-DEAE mixture per well for 15 min at room temperature. The plasmid-DEAE mixture was prepared by incubating 100 ng of plasmid DNA, unless otherwise noted in individual experiments, with 3.125 μl of DEAE-Dextran (10 mg/ml) (Promega, Madison Wis.). FRTL-5 cells were incubated with this mixture for 2 hr at 37° C. in a CO2 incubator, before 2 ml of 6H5 medium was added. […]

TLR4 signaled genes = experiment: Gene expression in organs of LPS-treated mice (Northern, RT-PCR); format: in vivo, mouse

## Cn1c(-c2ccccc2)cnc1S [Compound C10, 5-Phenylmethimazole]
ISRE; FRTL-5, 6 hours
  ISRE activation by poly (I:C), LPS, IL-1β, TNF-α, IFN-β and IFN-γ (ISRE-Luc): effective inhibitor
ISRE; FRTL-5, Ligand None, 6 hours
  ISRE-Luc Relative Luciferase Activity % of Control (±15%), +C10: 100 % of Control
NF-κB; FRTL-5, Ligand IFN-β 100 U/ml
  NF-κB Luc Relative Luciferase Activity % of Control (±15%), +C10: 150 % of Control
NF-κB; FRTL-5, Ligand IFN-γ 1000 U/ml
  NF-κB Luc Relative Luciferase Activity % of Control (±15%), +C10: 180 % of Control
NF-κB; FRTL-5, Ligand IL-1β 10 ng/ml
  NF-κB Luc Relative Luciferase Activity % of Control (±15%), +C10: 350 % of Control
NF-κB; FRTL-5, Ligand LPS 100 ng/ml
  NF-κB Luc Relative Luciferase Activity % of Control (±15%), +C10: 250 % of Control
NF-κB; FRTL-5, Ligand None
  NF-κB Luc Relative Luciferase Activity % of Control (±15%), +C10: 100 % of Control
NF-κB; FRTL-5, Ligand Poly (I:C) 100 μg/ml
  NF-κB Luc Relative Luciferase Activity % of Control (±15%), +C10: 300 % of Control
NF-κB; FRTL-5, Ligand TNF-α 25 ng/ml
  NF-κB Luc Relative Luciferase Activity % of Control (±15%), +C10: 225 % of Control
NF-κB; FRTL-5, 0.5 mM C10 or 5 mM MMI
  effect on Poly (I:C)-increased NF-κB-luciferase activity: minimal effect
TLR4 signaled genes; LPS injected mice at 24 hours, Northern
  pro-inflammatory cytokine gene expression (TNF α, IL-1β, IL-6, IL-12, IFN γ) in spleen, liver, lung, kidney, heart: suppressed
TLR4 signaled genes; LPS-treated mice of Table 5, Northern
  LPS-induced over-expression of IRF-1, IP-10 and MCP-1 RNA in organs: suppressed
TLR4 signaled genes; kidney, liver and lung, RT-PCR
  LPS-elevated COX-2 RNA levels: completely suppressed and returned to normal
TLR4 signaled genes; organs of LPS treated mice, RT-PCR
  LPS-down-regulated COX-1 RNA levels: returned RNA levels to the normal levels
TLR4 signaled genes; spleen, liver, lung, kidney, heart, RT-PCR
  LPS-increased iNOS RNA levels: suppressed
